Test results: publication PMC12155096 (International Journal of Molecular Sciences, 2025)

Each compound was assayed against Photinus pyralis (firefly) luciferase (Photinus pyralis, UniProt P08659) (assay: biochemical). Conditions: not given.
Type: biochemical

Chain of Photinus pyralis (firefly) luciferase (P08659 whole entry): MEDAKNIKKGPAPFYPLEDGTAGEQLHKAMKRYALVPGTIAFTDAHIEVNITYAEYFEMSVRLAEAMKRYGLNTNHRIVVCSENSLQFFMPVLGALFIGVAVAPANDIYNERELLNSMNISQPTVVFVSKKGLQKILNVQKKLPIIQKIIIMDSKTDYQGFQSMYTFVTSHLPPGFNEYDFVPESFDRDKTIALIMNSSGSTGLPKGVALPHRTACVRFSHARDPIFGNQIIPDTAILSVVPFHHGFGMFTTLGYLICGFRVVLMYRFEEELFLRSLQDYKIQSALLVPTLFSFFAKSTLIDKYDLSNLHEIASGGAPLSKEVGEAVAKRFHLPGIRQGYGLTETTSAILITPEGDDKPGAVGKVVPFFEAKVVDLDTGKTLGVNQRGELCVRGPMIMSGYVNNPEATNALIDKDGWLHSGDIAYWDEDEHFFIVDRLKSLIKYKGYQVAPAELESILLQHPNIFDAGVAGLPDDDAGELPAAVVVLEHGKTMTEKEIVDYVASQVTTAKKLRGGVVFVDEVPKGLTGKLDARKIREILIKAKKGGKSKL

SMILES	Luciferase Efficacy (in parenthesis)	Luciferase IC50 (half-maximal inhibitory concentration)	Luciferase IC50
CC(=O)c1ccc2ccc3ccccc3c2c1 [3-Acetylphenanthrene]	32.81 ± 2.22 (-56 ± 6) %		
O=C(C(=O)c1ccc(Br)cc1)c1ccc(Br)cc1 [4,4'-Dibromobenzil]		Inactive	
c1cc(CCCc2ccncc2)ccn1 [4,4'-Propane-1,3-diyldipyridine]			Inactive
Cc1cccc2c1cc1ccc3cccc4ccc2c1c34 [7-Methylbenzo(a)pyrene]			Inactive
O=C1CCCc2c1cc1ccc3cccc4ccc2c1c34 [9,10-Dihydrobenzo[a]pyren-7(8H)-one]	9.87 ± 1.68 (-53 ± 7) %		

Same assay, conditions: read-out: Luciferase IC50

SMILES	IC50
CCCCCCCCCCCCCCCCCC[N+](C)(C)Cc1ccccc1.[Cl-]	87 µM
Cc1cc(N=Nc2ccccc2C)ccc1N [2-Amino-5-azotoluene]	5.66 µM
Nc1nc2ccc([N+](=O)[O-])cc2s1 [2-Amino-6-nitrobenzothiazole]	66.4 µM
NNc1nc(-c2ccccc2)cs1 [2-Hydrazino-4-phenylthiazole]	33.9 µM
N#Cc1cc2ccccc2c2ccccc12 [9-Cyanophenanthrene]	62.4 µM

Same assay, conditions: read-out: Luciferase IC50 (half-maximal inhibitory concentration)

SMILES	IC50
COc1cc2c(cc1N)oc1ccccc12 [2-Methoxy-3-aminodibenzofuran]	54.6 µM
COc1cc(-c2ccc(N)c(OC)c2)ccc1N.Cl.Cl [3,3'-Dimethoxybenzidine dihydrochloride]	60.4 µM
CC(=O)c1ccc2ccc3ccccc3c2c1 [3-Acetylphenanthrene]	32.8 µM
O=C1CCCc2c1cc1ccc3cccc4ccc2c1c34 [9,10-Dihydrobenzo[a]pyren-7(8H)-one]	9.87 µM

These compounds were tested against T1, human CYP1A2 (Homo sapiens, UniProt P05177) (assay: not given). Conditions: not given.
T1 sequence (P05177 1-516): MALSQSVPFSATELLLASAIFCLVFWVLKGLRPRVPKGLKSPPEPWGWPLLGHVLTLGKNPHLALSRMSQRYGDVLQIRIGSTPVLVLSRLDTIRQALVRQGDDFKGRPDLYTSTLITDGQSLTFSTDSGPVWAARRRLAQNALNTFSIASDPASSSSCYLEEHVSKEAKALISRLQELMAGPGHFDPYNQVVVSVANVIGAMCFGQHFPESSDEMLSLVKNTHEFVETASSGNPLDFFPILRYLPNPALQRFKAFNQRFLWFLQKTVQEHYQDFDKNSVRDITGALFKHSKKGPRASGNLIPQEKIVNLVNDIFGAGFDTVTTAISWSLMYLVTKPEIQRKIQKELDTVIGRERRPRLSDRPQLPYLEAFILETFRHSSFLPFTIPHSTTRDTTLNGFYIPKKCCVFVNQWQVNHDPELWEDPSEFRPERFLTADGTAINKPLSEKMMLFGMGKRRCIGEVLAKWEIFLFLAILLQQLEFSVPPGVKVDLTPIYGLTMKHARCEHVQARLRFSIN

SMILES	CYP1A2 Efficacy	IC50	CYP1A2 Efficacy (in parenthesis)	AC50
CCCCCCCCCCCCCCCCCC[N+](C)(C)Cc1ccccc1.[Cl-]	80.42 ± 0 (-111 ± 16) %			
Cc1cc(N=Nc2ccccc2C)ccc1N [2-Amino-5-azotoluene]		0.99 µM		
Nc1nc2ccc([N+](=O)[O-])cc2s1 [2-Amino-6-nitrobenzothiazole]		9.75 µM		
NNc1nc(-c2ccccc2)cs1 [2-Hydrazino-4-phenylthiazole]		0.75 µM		
COc1cc2c(cc1N)oc1ccccc12 [2-Methoxy-3-aminodibenzofuran]		0.63 µM		
COc1cc(-c2ccc(N)c(OC)c2)ccc1N.Cl.Cl [3,3'-Dimethoxybenzidine dihydrochloride]		0.82 µM		
CC(=O)c1ccc2ccc3ccccc3c2c1 [3-Acetylphenanthrene]		1.04 µM	1.04 ± 0.13 (-97 ± 1) %	
O=C(C(=O)c1ccc(Br)cc1)c1ccc(Br)cc1 [4,4'-Dibromobenzil]		9.92 µM	9.92 ± 0 (-37 ± 3) %	
c1cc(CCCc2ccncc2)ccn1 [4,4'-Propane-1,3-diyldipyridine]		1.54 µM		
Cc1cccc2c1cc1ccc3cccc4ccc2c1c34 [7-Methylbenzo(a)pyrene]		0.16 µM		0.16 µM
O=C1CCCc2c1cc1ccc3cccc4ccc2c1c34 [9,10-Dihydrobenzo[a]pyren-7(8H)-one]		0.28 µM	0.28 ± 0.05 (-100 ± 3) %	
N#Cc1cc2ccccc2c2ccccc12 [9-Cyanophenanthrene]		0.06 µM		

Each compound was assayed against human CYP2C9 (Homo sapiens, UniProt P11712) (assay: not given). Conditions: not given.
Chain of human CYP2C9 (P11712 whole entry): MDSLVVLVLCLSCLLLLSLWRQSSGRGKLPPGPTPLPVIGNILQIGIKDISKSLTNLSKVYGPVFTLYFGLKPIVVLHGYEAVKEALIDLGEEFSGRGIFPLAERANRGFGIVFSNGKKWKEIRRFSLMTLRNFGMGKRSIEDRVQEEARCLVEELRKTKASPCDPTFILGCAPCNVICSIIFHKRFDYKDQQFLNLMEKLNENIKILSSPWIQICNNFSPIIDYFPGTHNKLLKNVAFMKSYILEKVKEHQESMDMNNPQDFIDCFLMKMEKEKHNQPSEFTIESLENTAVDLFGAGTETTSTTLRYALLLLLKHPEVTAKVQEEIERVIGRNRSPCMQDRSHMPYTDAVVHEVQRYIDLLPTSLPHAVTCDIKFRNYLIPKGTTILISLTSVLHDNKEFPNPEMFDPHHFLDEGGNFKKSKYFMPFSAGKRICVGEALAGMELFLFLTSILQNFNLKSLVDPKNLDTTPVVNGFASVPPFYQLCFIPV

SMILES	CYP2C9 Efficacy	IC50	CYP2C9 Efficacy (in parenthesis)	CYP2C9 IC50 (half-maximal inhibitory concentration)	CYP2C9 IC50
CCCCCCCCCCCCCCCCCC[N+](C)(C)Cc1ccccc1.[Cl-]	38.84 ± 2.53 (-102 ± 5) %				
Cc1cc(N=Nc2ccccc2C)ccc1N [2-Amino-5-azotoluene]	5.45 ± 1.48 (-102 ± 10) %				
Nc1nc2ccc([N+](=O)[O-])cc2s1 [2-Amino-6-nitrobenzothiazole]	59.75 ± 4.61 (-39 ± 3) %				
NNc1nc(-c2ccccc2)cs1 [2-Hydrazino-4-phenylthiazole]		8.86 µM			
COc1cc2c(cc1N)oc1ccccc12 [2-Methoxy-3-aminodibenzofuran]		6.23 µM			
COc1cc(-c2ccc(N)c(OC)c2)ccc1N.Cl.Cl [3,3'-Dimethoxybenzidine dihydrochloride]		8.91 µM			
CC(=O)c1ccc2ccc3ccccc3c2c1 [3-Acetylphenanthrene]		11.6 µM	11.64 ± 0.79 (-93 ± 2) %		
O=C(C(=O)c1ccc(Br)cc1)c1ccc(Br)cc1 [4,4'-Dibromobenzil]				Inactive	
c1cc(CCCc2ccncc2)ccn1 [4,4'-Propane-1,3-diyldipyridine]		5.05 µM			
Cc1cccc2c1cc1ccc3cccc4ccc2c1c34 [7-Methylbenzo(a)pyrene]					Inactive
O=C1CCCc2c1cc1ccc3cccc4ccc2c1c34 [9,10-Dihydrobenzo[a]pyren-7(8H)-one]		5.32 µM	5.32 ± 0.68 (-71 ± 3) %		
N#Cc1cc2ccccc2c2ccccc12 [9-Cyanophenanthrene]		39.3 µM			

Each compound was assayed against human CYP2C19 (Homo sapiens, UniProt P33261) (assay: not given). Conditions: not given.
Chain of human CYP2C19 (P33261 whole entry): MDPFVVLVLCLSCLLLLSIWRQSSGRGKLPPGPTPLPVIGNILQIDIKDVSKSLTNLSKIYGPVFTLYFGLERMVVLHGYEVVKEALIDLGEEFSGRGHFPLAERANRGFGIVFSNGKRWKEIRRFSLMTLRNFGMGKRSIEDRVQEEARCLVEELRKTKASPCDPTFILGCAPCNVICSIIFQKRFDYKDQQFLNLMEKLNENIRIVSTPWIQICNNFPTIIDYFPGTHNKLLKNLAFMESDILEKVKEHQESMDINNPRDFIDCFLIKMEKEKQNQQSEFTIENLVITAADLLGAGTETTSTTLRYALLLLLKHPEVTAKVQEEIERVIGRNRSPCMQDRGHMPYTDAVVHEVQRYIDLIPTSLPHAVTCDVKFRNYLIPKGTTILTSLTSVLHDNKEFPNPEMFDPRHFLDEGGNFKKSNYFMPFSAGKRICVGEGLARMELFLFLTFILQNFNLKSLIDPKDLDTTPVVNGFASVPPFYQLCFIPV

SMILES	CYP2C19 Efficacy	IC50	CYP2C19 Efficacy (in parenthesis)	CYP2C19 IC50
CCCCCCCCCCCCCCCCCC[N+](C)(C)Cc1ccccc1.[Cl-]	48.63 ± 14.39 (-147 ± 23) %			
Cc1cc(N=Nc2ccccc2C)ccc1N [2-Amino-5-azotoluene]		6.21 µM		
Nc1nc2ccc([N+](=O)[O-])cc2s1 [2-Amino-6-nitrobenzothiazole]		35.7 µM		
NNc1nc(-c2ccccc2)cs1 [2-Hydrazino-4-phenylthiazole]		8.06 µM		
COc1cc2c(cc1N)oc1ccccc12 [2-Methoxy-3-aminodibenzofuran]		3.95 µM		
COc1cc(-c2ccc(N)c(OC)c2)ccc1N.Cl.Cl [3,3'-Dimethoxybenzidine dihydrochloride]		7.39 µM		
CC(=O)c1ccc2ccc3ccccc3c2c1 [3-Acetylphenanthrene]		22.4 µM	22.42 ± 2.58 (-138 ± 3) %	
O=C(C(=O)c1ccc(Br)cc1)c1ccc(Br)cc1 [4,4'-Dibromobenzil]		0.71 µM	0.71 ± 0.31 (-137 ± 6) %	
c1cc(CCCc2ccncc2)ccn1 [4,4'-Propane-1,3-diyldipyridine]		1.5 µM		
Cc1cccc2c1cc1ccc3cccc4ccc2c1c34 [7-Methylbenzo(a)pyrene]				Inactive
O=C1CCCc2c1cc1ccc3cccc4ccc2c1c34 [9,10-Dihydrobenzo[a]pyren-7(8H)-one]		26.3 µM	26.27 ± 7.32 (-125 ± 17) %	
N#Cc1cc2ccccc2c2ccccc12 [9-Cyanophenanthrene]		29.3 µM		

These compounds were tested against human CYP2D6 (Homo sapiens, UniProt P10635) (assay: not given). Conditions: not given.
Chain of human CYP2D6 (P10635 whole entry): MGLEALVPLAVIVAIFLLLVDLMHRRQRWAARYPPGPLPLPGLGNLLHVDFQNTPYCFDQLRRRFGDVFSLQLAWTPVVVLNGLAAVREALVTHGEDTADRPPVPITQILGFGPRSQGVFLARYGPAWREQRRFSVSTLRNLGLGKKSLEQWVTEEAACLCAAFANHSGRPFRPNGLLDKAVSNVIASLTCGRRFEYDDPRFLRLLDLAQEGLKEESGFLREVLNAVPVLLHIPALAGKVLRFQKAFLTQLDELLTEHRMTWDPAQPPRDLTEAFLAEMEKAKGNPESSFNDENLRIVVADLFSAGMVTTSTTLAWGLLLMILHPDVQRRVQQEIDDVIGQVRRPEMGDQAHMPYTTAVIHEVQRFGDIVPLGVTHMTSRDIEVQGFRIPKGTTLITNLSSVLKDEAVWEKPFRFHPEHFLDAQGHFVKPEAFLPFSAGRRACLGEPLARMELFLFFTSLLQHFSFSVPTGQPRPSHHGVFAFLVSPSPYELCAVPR

SMILES	CYP2D6 Efficacy	IC50	CYP2D6 Efficacy (in parenthesis)	CYP2D6 IC50 (half-maximal inhibitory concentration)	CYP2D6 IC50
CCCCCCCCCCCCCCCCCC[N+](C)(C)Cc1ccccc1.[Cl-]	0.67 ± 0.43 (-99 ± 3) %				
Cc1cc(N=Nc2ccccc2C)ccc1N [2-Amino-5-azotoluene]		45.4 µM			
Nc1nc2ccc([N+](=O)[O-])cc2s1 [2-Amino-6-nitrobenzothiazole]		44 µM			
NNc1nc(-c2ccccc2)cs1 [2-Hydrazino-4-phenylthiazole]		53.2 µM			
COc1cc2c(cc1N)oc1ccccc12 [2-Methoxy-3-aminodibenzofuran]		7.61 µM			
COc1cc(-c2ccc(N)c(OC)c2)ccc1N.Cl.Cl [3,3'-Dimethoxybenzidine dihydrochloride]		30.4 µM			
CC(=O)c1ccc2ccc3ccccc3c2c1 [3-Acetylphenanthrene]		88.9 µM	88.85 ± 0 (-46 ± 10) %		
O=C(C(=O)c1ccc(Br)cc1)c1ccc(Br)cc1 [4,4'-Dibromobenzil]				Inactive	
c1cc(CCCc2ccncc2)ccn1 [4,4'-Propane-1,3-diyldipyridine]		1.54 µM			
Cc1cccc2c1cc1ccc3cccc4ccc2c1c34 [7-Methylbenzo(a)pyrene]					Inactive
O=C1CCCc2c1cc1ccc3cccc4ccc2c1c34 [9,10-Dihydrobenzo[a]pyren-7(8H)-one]				Inactive	
N#Cc1cc2ccccc2c2ccccc12 [9-Cyanophenanthrene]					Inactive

The compounds below were run against CYP3A4 (Homo sapiens, UniProt P08684) (assay: not given). Conditions: not given.
Chain of CYP3A4 (P08684 whole entry): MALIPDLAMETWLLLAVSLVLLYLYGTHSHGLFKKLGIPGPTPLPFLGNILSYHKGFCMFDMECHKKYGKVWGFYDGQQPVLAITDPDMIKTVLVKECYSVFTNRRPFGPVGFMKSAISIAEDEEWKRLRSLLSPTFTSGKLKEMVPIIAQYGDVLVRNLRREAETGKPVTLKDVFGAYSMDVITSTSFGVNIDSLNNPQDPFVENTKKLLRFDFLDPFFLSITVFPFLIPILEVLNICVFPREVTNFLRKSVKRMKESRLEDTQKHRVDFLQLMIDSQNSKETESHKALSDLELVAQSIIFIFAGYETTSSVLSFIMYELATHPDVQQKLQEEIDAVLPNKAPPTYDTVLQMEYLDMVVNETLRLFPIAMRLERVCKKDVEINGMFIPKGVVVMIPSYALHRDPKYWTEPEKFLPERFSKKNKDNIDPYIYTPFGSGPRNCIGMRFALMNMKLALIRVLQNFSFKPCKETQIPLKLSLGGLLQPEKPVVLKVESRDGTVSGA

SMILES	IC50	CYP3A4 Efficacy (in parenthesis)	CYP3A4 IC50 (half-maximal inhibitory concentration)	AC50	CYP3A4 IC50
CCCCCCCCCCCCCCCCCC[N+](C)(C)Cc1ccccc1.[Cl-]	45.9 µM				
Cc1cc(N=Nc2ccccc2C)ccc1N [2-Amino-5-azotoluene]	2.53 µM				
Nc1nc2ccc([N+](=O)[O-])cc2s1 [2-Amino-6-nitrobenzothiazole]	60.6 µM				
NNc1nc(-c2ccccc2)cs1 [2-Hydrazino-4-phenylthiazole]	14 µM				
COc1cc2c(cc1N)oc1ccccc12 [2-Methoxy-3-aminodibenzofuran]	8.5 µM				
COc1cc(-c2ccc(N)c(OC)c2)ccc1N.Cl.Cl [3,3'-Dimethoxybenzidine dihydrochloride]	1.71 µM				
CC(=O)c1ccc2ccc3ccccc3c2c1 [3-Acetylphenanthrene]	48.5 µM	48.54 ± 19.2 (-66 ± 4) %			
O=C(C(=O)c1ccc(Br)cc1)c1ccc(Br)cc1 [4,4'-Dibromobenzil]			Inactive		
c1cc(CCCc2ccncc2)ccn1 [4,4'-Propane-1,3-diyldipyridine]	0.87 µM				
Cc1cccc2c1cc1ccc3cccc4ccc2c1c34 [7-Methylbenzo(a)pyrene]				73 µM	72.98 ± 8.39 (145 ± 22) µM
O=C1CCCc2c1cc1ccc3cccc4ccc2c1c34 [9,10-Dihydrobenzo[a]pyren-7(8H)-one]	9.09 µM	9.09 ± 1.05 (-72 ± 4) %			
N#Cc1cc2ccccc2c2ccccc12 [9-Cyanophenanthrene]					Inactive
